# Source: EP1247803A2, “Indolinone compounds suitable for modulation of protein kinases” (Sugen, Inc., priority 1996, dated 1998)
# Molecular target: T1, FLK-1 receptor (Mus musculus, UniProt P35918)
# T1 construct: expressed in transfected cells; host or cells: NIH3T3 C7#3
# Assay: FLK-1 ELISA (kinase activity of the FLK-1 receptor in FLK-1/NIH3T3 cells, VEGF stimulated)
# Type: cell-based
# Design: concentration or dose not given beside the values
# Method in brief: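 FLK-1-expressing NIH3T3 C7#3 cells, starved overnight in 0.1% FBS medium, were treated with compounds at a 1:200 final dilution (0.5% DMSO) for 2 h at 37 °C, with VEGF stimulation. FLK-1 kinase activity was read by ELISA on anti-rabbit IgG plates using affinity-purified anti-FLK-1 antiserum.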
# T1 sequence (P35918 20-1345): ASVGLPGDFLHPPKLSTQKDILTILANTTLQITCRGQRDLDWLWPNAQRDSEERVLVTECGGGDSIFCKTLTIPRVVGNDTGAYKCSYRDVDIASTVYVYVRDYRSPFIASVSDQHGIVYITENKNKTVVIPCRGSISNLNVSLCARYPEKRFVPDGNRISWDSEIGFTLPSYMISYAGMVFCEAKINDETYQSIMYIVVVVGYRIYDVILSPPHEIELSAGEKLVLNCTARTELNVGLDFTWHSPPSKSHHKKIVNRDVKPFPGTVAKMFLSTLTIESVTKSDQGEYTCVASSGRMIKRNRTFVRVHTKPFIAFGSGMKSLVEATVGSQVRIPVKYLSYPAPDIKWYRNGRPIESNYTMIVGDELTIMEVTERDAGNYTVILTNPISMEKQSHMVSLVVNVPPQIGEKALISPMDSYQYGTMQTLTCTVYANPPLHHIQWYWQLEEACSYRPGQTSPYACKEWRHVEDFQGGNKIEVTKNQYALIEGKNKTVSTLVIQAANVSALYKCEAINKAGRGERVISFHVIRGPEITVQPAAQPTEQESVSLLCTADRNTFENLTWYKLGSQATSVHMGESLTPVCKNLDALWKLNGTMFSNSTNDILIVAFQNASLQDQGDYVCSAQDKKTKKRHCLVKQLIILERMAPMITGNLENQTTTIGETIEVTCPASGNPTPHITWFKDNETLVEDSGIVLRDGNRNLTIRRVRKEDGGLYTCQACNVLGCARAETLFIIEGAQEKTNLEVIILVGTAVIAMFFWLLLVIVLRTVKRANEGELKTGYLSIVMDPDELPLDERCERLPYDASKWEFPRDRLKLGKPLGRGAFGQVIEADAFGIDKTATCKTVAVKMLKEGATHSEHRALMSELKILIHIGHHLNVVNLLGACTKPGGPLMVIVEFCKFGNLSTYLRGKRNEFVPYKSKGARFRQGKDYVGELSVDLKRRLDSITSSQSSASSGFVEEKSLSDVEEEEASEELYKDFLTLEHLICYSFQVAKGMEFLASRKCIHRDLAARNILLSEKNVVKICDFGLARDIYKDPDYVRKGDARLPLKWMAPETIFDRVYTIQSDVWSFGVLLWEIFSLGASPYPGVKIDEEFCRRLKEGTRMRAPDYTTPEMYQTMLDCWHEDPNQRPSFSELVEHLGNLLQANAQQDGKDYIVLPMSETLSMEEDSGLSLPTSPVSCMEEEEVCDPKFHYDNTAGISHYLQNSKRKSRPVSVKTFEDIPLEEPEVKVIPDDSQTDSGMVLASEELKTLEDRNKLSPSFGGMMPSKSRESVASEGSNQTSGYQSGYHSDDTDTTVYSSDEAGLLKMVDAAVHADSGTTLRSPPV
row,Compound,Fik Kinase %Inhibition
1,Cn1cccc1C=C1C(=O)Nc2c(Br)cc(Br)cc21 [10717/A04],-4.5%
2,O=C1Nc2ccc(S(=O)(=O)Nc3ccc(C(F)(F)F)cc3)cc2C1=Cc1ccc[nH]1 [10717/E09],-1.1%
3,COc1cccc(O)c1C=C1C(=O)Nc2ccc(S(=O)(=O)Nc3ccc(C(F)(F)F)cc3)cc21 [10717/E10],4.7%
4,Cc1[nH]c(C=C2C(=O)Nc3ccc(S(=O)(=O)Nc4ccc(C(F)(F)F)cc4)cc32)c(Br)c1Br [10717/E11],8.9%
5,CCOc1ccccc1C=C1C(=O)Nc2ccc(S(=O)(=O)N3CCOCC3)cc21 [10717/F02],2.2%
6,O=C1Nc2ccc(S(=O)(=O)N3CCOCC3)cc2C1=Cc1cccs1 [10717/F03],0.5%
7,Cn1cccc1C=C1C(=O)Nc2ccc(S(=O)(=O)N3CCOCC3)cc21 [10717/F04],-0.1%
8,O=C1Nc2ccc(S(=O)(=O)N3CCOCC3)cc2C1=Cc1ccc(F)cc1 [10717/F05],3.2%
9,O=C1Nc2ccc(S(=O)(=O)N3CCOCC3)cc2C1=Cc1c[nH]c2ccccc12 [10717/F06],8.9%
10,O=C1Nc2ccc(CCCl)cc2C1=Cc1cccc(Br)c1 [10723/G10],. 3.5%
11,CC(C)(C)c1cc(C=C2C(=O)Nc3ccc(CCCl)cc32)c(O)c(C(C)(C)C)c1 [10723/G11],-4.1%
12,CN(C)c1ccc(C=C2C(=O)Nc3c(Br)cc(Br)cc32)c2ccccc12 [10724/A02],1.8%
13,O=C1Nc2c(Br)cc(Br)cc2C1=Cc1ccc(O)c([N+](=O)[O-])c1 [10724/A03],-7.8%
14,O=C1Nc2c(Br)cc(Br)cc2C1=Cc1ccc([N+](=O)[O-])c(O)c1 [10724/A04],-15.9%
15,O=C1Nc2c(Br)cc(Br)cc2C1=Cc1cc2c3c(c1O)CCCN3CCC2 [10724/A05],-15.2%
16,CC(C)c1cc(C=C2C(=O)Nc3c(Br)cc(Br)cc32)cc(C(C)C)c1O [10724/A06],-3.7%
17,O=C1Nc2c(Br)cc(Br)cc2C1=Cc1cc2ccccc2o1 [10724/A07],3.7%
18,O=C1Nc2c(Br)cc(Br)cc2C1=Cc1cccn1-c1ccc(Cl)cc1 [10724/A09],-5.2%
19,CCc1ccc(C=C2C(=O)Nc3c(Br)cc(Br)cc32)o1 [10724/A10],1.6%
20,Cc1csc2sc(C=C3C(=O)Nc4c(Br)cc(Br)cc43)c(C)c12 [10724/A11],12.8%
21,O=C1Nc2ccc(I)cc2C1=Cc1ccc(O)c([N+](=O)[O-])c1 [10724/B03],-48.9%
22,CC(C)c1cc(C=C2C(=O)Nc3ccc(I)cc32)cc(C(C)C)c1O [10724/B06],13.4%
23,O=C1Nc2ccc(I)cc2C1=Cc1cc2ccccc2o1 [10724/B07],-1.8%
24,O=C1Nc2ccc(I)cc2C1=Cc1cccn1-c1ccc(Cl)cc1 [10724/B09],3.5%
25,CCc1ccc(C=C2C(=O)Nc3ccc(I)cc32)o1 [10724/B10],8.5%
26,Cc1csc2sc(C=C3C(=O)Nc4ccc(I)cc43)c(C)c12 [10724/B11],9.0%

row,Compound,Fik Kinase %Inhibition
1,Cc1c(Br)ccc2c1C(=Cc1ccc(N(C)C)c3ccccc13)C(=O)N2 [10724/C02],-0.3%
2,Cc1c(Br)ccc2c1C(=Cc1ccc(O)c([N+](=O)[O-])c1)C(=O)N2 [10724/C03],-20.3%
3,Cc1c(Br)ccc2c1C(=Cc1ccc([N+](=O)[O-])c(O)c1)C(=O)N2 [10724/C04],-18.6%
4,Cc1c(Br)ccc2c1C(=Cc1cc3c4c(c1O)CCCN4CCC3)C(=O)N2 [10724/C05],-18.6%
5,Cc1c(Br)ccc2c1C(=Cc1cc(C(C)C)c(O)c(C(C)C)c1)C(=O)N2 [10724/C06],-1.5%
6,Cc1c(Br)ccc2c1C(=Cc1cc3ccccc3o1)C(=O)N2 [10724/C07],-1.2%
7,Cc1c(Br)ccc2c1C(=Cc1cccn1-c1ccc(Cl)cc1)C(=O)N2 [10724/C09],9.3%
8,CCc1ccc(C=C2C(=O)Nc3ccc(Br)c(C)c32)o1 [10724/C10],-2.3%
9,Cc1c(Br)ccc2c1C(=Cc1sc3scc(C)c3c1C)C(=O)N2 [10724/C11],10.3%
10,CNS(=O)(=O)c1ccc2c(c1)C(=Cc1ccc(N(C)C)c3ccccc13)C(=O)N2 [10724/D02],12.4%
11,CNS(=O)(=O)c1ccc2c(c1)C(=Cc1ccc(O)c([N+](=O)[O-])c1)C(=O)N2 [10724/D03],0.1%
12,CNS(=O)(=O)c1ccc2c(c1)C(=Cc1ccc([N+](=O)[O-])c(O)c1)C(=O)N2 [10724/D04],0.5%
13,CNS(=O)(=O)c1ccc2c(c1)C(=Cc1cc3c4c(c1O)CCCN4CCC3)C(=O)N2 [10724/D05],-1.6%
14,CNS(=O)(=O)c1ccc2c(c1)C(=Cc1cc(C(C)C)c(O)c(C(C)C)c1)C(=O)N2 [10724/D06],12.4%
15,CNS(=O)(=O)c1ccc2c(c1)C(=Cc1cc3ccccc3o1)C(=O)N2 [10724/D07],-2.6%
16,CNS(=O)(=O)c1ccc2c(c1)C(=Cc1cccn1-c1ccc(Cl)cc1)C(=O)N2 [10724/D09],0.9%
17,CCc1ccc(C=C2C(=O)Nc3ccc(S(=O)(=O)NC)cc32)o1 [10724/D10],3.7%
18,CNS(=O)(=O)c1ccc2c(c1)C(=Cc1sc3scc(C)c3c1C)C(=O)N2 [10724/D11],14.9%
19,CN(C)c1ccc(C=C2C(=O)Nc3ccc(S(=O)(=O)Nc4ccc(C(F)(F)F)cc4)cc32)c2ccccc12 [10724/E02],17.7%
20,O=C1Nc2ccc(S(=O)(=O)Nc3ccc(C(F)(F)F)cc3)cc2C1=Cc1ccc(O)c([N+](=O)[O-])c1 [10724/E03],10.6%
21,O=C1Nc2ccc(S(=O)(=O)Nc3ccc(C(F)(F)F)cc3)cc2C1=Cc1ccc([N+](=O)[O-])c(O)c1 [10724/E04],55.2%
22,O=C1Nc2ccc(S(=O)(=O)Nc3ccc(C(F)(F)F)cc3)cc2C1=Cc1cc2c3c(c1O)CCCN3CCC2 [10724/E05],13.8%
23,CC(C)c1cc(C=C2C(=O)Nc3ccc(S(=O)(=O)Nc4ccc(C(F)(F)F)cc4)cc32)cc(C(C)C)c1O [10724/E06],8.3%
24,O=C1Nc2ccc(S(=O)(=O)Nc3ccc(C(F)(F)F)cc3)cc2C1=Cc1cc2ccccc2o1 [10724/E07],-3.6%
25,O=C1Nc2ccc(S(=O)(=O)Nc3ccc(C(F)(F)F)cc3)cc2C1=Cc1cccn1-c1ccc(Cl)cc1 [10724/E09],14.3%
26,CCc1ccc(C=C2C(=O)Nc3ccc(S(=O)(=O)Nc4ccc(C(F)(F)F)cc4)cc32)o1 [10724/E10],7.3%

row,Compound,Fik Kinase %Inhibition
1,Cc1csc2sc(C=C3C(=O)Nc4ccc(S(=O)(=O)Nc5ccc(C(F)(F)F)cc5)cc43)c(C)c12 [10724/E11],5.1%
2,CN(C)c1ccc(C=C2C(=O)Nc3ccc(CCCl)cc32)c2ccccc12 [10724/G02],15.1%
3,O=C1Nc2ccc(CCCl)cc2C1=Cc1ccc(O)c([N+](=O)[O-])c1 [10724/G03],-8.4%
4,O=C1Nc2ccc(CCCl)cc2C1=Cc1ccc([N+](=O)[O-])c(O)c1 [10724/G04],-7.9%
5,O=C1Nc2ccc(CCCl)cc2C1=Cc1cc2c3c(c1O)CCCN3CCC2 [10724/G05],-0.1%
6,CC(C)c1cc(C=C2C(=O)Nc3ccc(CCCl)cc32)cc(C(C)C)c1O [10724/G06],0.1%
7,O=C1Nc2ccc(CCCl)cc2C1=Cc1cc2ccccc2o1 [10724/G07],-1.9%
8,O=C1Nc2ccc(CCCl)cc2C1=Cc1cccn1-c1ccc(Cl)cc1 [10724/G09],9.1%
9,CCc1ccc(C=C2C(=O)Nc3ccc(CCCl)cc32)o1 [10724/G10],7.0%
10,Cc1csc2sc(C=C3C(=O)Nc4ccc(CCCl)cc43)c(C)c12 [10724/G11],6.8%
11,O=C1Nc2c(Br)cc(Br)cc2C1=Cc1sccc1Br [10725/A02],-2.0%
12,COc1ccc(Br)c(C=C2C(=O)Nc3c(Br)cc(Br)cc32)c1O [10725/A03],3.6%
13,Cc1cc(C=C2C(=O)Nc3c(Br)cc(Br)cc32)[nH]n1 [10725/A05],-13.9%
14,COc1cc(C)cc(O)c1C=C1C(=O)Nc2c(Br)cc(Br)cc21 [10725/A06],-7.3%
15,O=CN1CCN(c2ccc(C=C3C(=O)Nc4c(Br)cc(Br)cc43)cc2)CC1 [10725/A07],-12.3%
16,O=C1Nc2c(Br)cc(Br)cc2C1=Cc1ccc(N2CCOCC2)cc1 [10725/A08],-2.9%
17,COC(=O)Cc1c(Cl)[nH]c(C=C2C(=O)Nc3c(Br)cc(Br)c(C)c32)c1C(=O)OC [10725/A09],-13.9%
18,Cc1c(Br)cc(Br)c2c1C(=Cc1c(Br)cnn1-c1ccc(Cl)cc1)C(=O)N2 [10725/A10],-3.2%
19,Cc1c(Br)cc(Br)c2c1C(=Cc1c[nH]cn1)C(=O)N2 [10725/A11],-21.9%
20,O=C1Nc2ccc(I)cc2C1=Cc1sccc1Br [10725/B02],-2.8%
21,COc1ccc(Br)c(C=C2C(=O)Nc3ccc(I)cc32)c1O [10725/B03],4.9%
22,Cc1cc(C=C2C(=O)Nc3ccc(I)cc32)[nH]n1 [10725/B05],-61.0%
23,COc1cc(C)cc(O)c1C=C1C(=O)Nc2ccc(I)cc21 [10725/B06],-0.5%
24,O=CN1CCN(c2ccc(C=C3C(=O)Nc4ccc(I)cc43)cc2)CC1 [10725/B07],24.6%
25,O=C1Nc2ccc(I)cc2C1=Cc1ccc(N2CCOCC2)cc1 [10725/B08],-24.1%
26,COC(=O)Cc1c(Cl)[nH]c(C=C2C(=O)Nc3ccc(I)cc32)c1C(=O)OC [10725/B09],0.4%
